The source of these data is patent publication EP4463162B1, “CONNEXIN 43 FOR USE IN TREATING BRCA1/2-MUTATED CANCER” (Fundación Profesor Novoa Santos, priority 2022, dated 2023).

The test system of one test is HCC1937 cells. The experiment in a line: Colony formation assay. The following applies: 100 µM olaparib, seven days, upon Cx43 restitution. Format: cell-based, human. The procedure: For assessing the clonogenic capacity of tumour cells lines, they were plated as single-cell suspensions (5 000-10 000 cells) in 6 or 12-well plates (Corning) and incubated for 6-7 days with media change every 48 h. After this time, they were washed with PBS, fixed with 4 % PFA for 15 min at room temperature and stained with 0.1 % crystal violet dye (Sigma-Aldrich) for 20 min at room temperature. They were then rinsed with PBS, air dried and photographed. The staining was dissolved with 30 % acetic acid for 10 min on a shaker. The eluent was then transferred to a 96-well plate and the absorbance, indicative of colony growth, measured at 570 nm using a NanoQuant microplate reader Infinite M200 (Tecan).
For small extracellular vesicle (sEV) isolation, sEV donor cells were grown in 175 cm^2 flasks (Thermo Fisher Scientific) until 85 % confluence. […] Donor cells final density was calculated, and supernatants derived from the same number of cells were ultracentrifuged at 100 000 x g for 90 min at 4 °C using a Hitachi Ultracentrifuge CP100NX with a P70AT rotor (Hitachi). […]
Cell viability measures were either relativized to untreated controls for each cell line, in order to account for the already reduced proliferation of Cx43-restituted cells (left graph) or reported as raw absorbance values (right graph). […]

A further test deals with γH2AX (p-Ser139). Nature of the test: Western blot and immunofluorescence against γH2AX. Format: cell-based, human. The note with it: Cx43_HCC1937, 50/100 µM olaparib, 96 h, vs basal condition and same treatments in EV_HCC1937. The procedure: 2 000-10 000 cells were plated on glass coverslips (Thermo Fisher Scientific) previously coated with poly-D-lysine hydrobromide (Sigma-Aldrich) and cultured until they were approximately 80 % confluent. They were washed with PBS, fixed with 4 % paraformaldehyde (PFA, Sigma-Aldrich) in PBS for 15 min at room temperature and rinsed twice with PBS. Next, cells were incubated with 0.1 M glycine (Sigma-Aldrich) in distilled water to quench PFA for 10 min at room temperature, and then their membranes were permeabilized with 0.2 % Triton X-100 (Sigma-Aldrich) in PBS for 10 min at room temperature. After two 5 min PBS washes, potential nonspecific antibody binding sites were blocked with 1 % bovine serum albumin (BSA; Sigma-Aldrich) diluted in PBST (PBS+0.1 % Tween 20; Sigma-Aldrich) for 30 min at room temperature. Cells were incubated overnight at 4 °C in the dark with primary antibody (see references in Table 3) diluted in 1 % BSA in PBST. […]
Protein extracts were mixed with loading buffer, which consisted of 10 % (v/v) β-mercaptoethanol (Sigma-Aldrich), 10 % SDS, 50 % (v/v) glycerol, 200 mM Tris-HCl pH 6.8 and 0.1 % bromophenol blue (Sigma-Aldrich). […] Ponceau staining and western blot images were analysed and their band intensities quantitated with Image J software.
Background: In western blotting, separated proteins are transferred to a membrane and probed.

With `O=C(c1cc(Cc2n[nH]c(=O)c3ccccc23)ccc1F)N1CCN(C(=O)C2CC2)CC1` [Olaparib, olaparib], the “cell viability (colony formation)” value in the test with HCC1937 cells is recorded as “profound decrease in HCC1937 cell viability”. Also, the “γH2AX (p-Ser139)” value with γH2AX (p-Ser139) is “significant γH2AX increase”.
